Experimental data published in PubChem BioAssay AID272 (DTP/NCI, 2004).
Several values for one entry are separate records, joined by “and”; a condition that tells them apart may be missing. Identical values can stand only once. Records with an inconclusive call do not appear.

System: Lewis lung carcinoma i.m., BDF1 mice, T/C %
Assay: NCI In Vivo Anticancer Drug Screen. Data for tumor model Lewis Lung Carcinoma (intramuscular) in B6D2F1 (BDF1) mice
In short: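 Mice carrying transplantable tumours received test compound. Survival or tumour size was recorded and expressed as the treated-group value (T) divided by the vehicle-treated control-group value (C).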

[1] = endpoint: mean tumor weight (est.), dose: 0.25 mg/kg/injection, schedule: Q01DX011 (ip), vehicle: saline, higher = larger tumour
[2] = endpoint: mean tumor weight (est.), dose: 0.5 mg/kg/injection, schedule: Q01DX011 (ip), vehicle: saline, higher = larger tumour
[3] = endpoint: median survival time, dose: 0.25 mg/kg/injection, schedule: Q01DX011 (ip), vehicle: saline, higher = longer survival
[4] = endpoint: median survival time, dose: 2.0 mg/kg/injection, schedule: Q01DX011 (ip), vehicle: saline, higher = longer survival
[5] = endpoint: mean tumor weight (est.), dose: 1.0 mg/kg/injection, schedule: Q01DX011 (ip), vehicle: saline, higher = larger tumour
[6] = endpoint: median survival time, dose: 0.5 mg/kg/injection, schedule: Q01DX011 (ip), vehicle: saline, higher = longer survival
[7] = endpoint: median survival time, dose: 1.0 mg/kg/injection, schedule: Q01DX011 (ip), vehicle: saline, higher = longer survival
[8] = endpoint: median survival time, dose: 4.0 mg/kg/injection, schedule: Q01DX011 (ip), vehicle: saline, higher = longer survival
[9] = endpoint: median survival time, dose: 16.0 mg/kg/injection, schedule: Q01DX011 (ip), vehicle: saline, higher = longer survival

Compound: COC(=O)C[C@](O)(CCCC(C)(C)O)C(=O)O[C@@H]1C(OC)=C[C@]23CCCN2CCc2cc4c(cc2[C@H]13)OCO4
- T/C [1]: 60 % of control
- T/C [2]: 57 % of control
- T/C [3]: 93 % of control

Compound: COc1cccc2c1C(=O)c1c(O)c3c(c(O)c1C2=O)C[C@@](O)(C(C)=O)C[C@@H]3OC1CC(N)C(O)C(C)O1 (stereo partly specified)
- T/C (endpoint: median survival time, dose: 0.25 mg/kg/injection, schedule: Q01DX011 (ip), vehicle: water, higher = longer survival): 93 % of control
- T/C (endpoint: median survival time, dose: 0.5 mg/kg/injection, schedule: Q01DX011 (ip), vehicle: water, higher = longer survival): 106 % of control and 117 % of control
- T/C (endpoint: median survival time, dose: 1.0 mg/kg/injection, schedule: Q01DX011 (ip), vehicle: water, higher = longer survival): 107 % of control

Compound: O=C(CCl)Nc1ccc(C(=O)O)cc1
- T/C (endpoint: median survival time, dose: 3.75 mg/kg/injection, schedule: Q01DX011 (ip), vehicle: saline with Tween-80, higher = longer survival): 106 % of control
- T/C (endpoint: median survival time, dose: 7.5 mg/kg/injection, schedule: Q01DX011 (ip), vehicle: saline with Tween-80, higher = longer survival): 97 % of control
- T/C (endpoint: median survival time, dose: 15.0 mg/kg/injection, schedule: Q01DX011 (ip), vehicle: saline with Tween-80, higher = longer survival): 100 % of control

Compound: Nc1nc2n[nH]nc2c(=O)[nH]1
- T/C (endpoint: mean tumor weight, dose: 25.0 mg/kg/injection, schedule: Q01DX011 (ip), vehicle: other, higher = larger tumour): 81 % of control
- T/C (endpoint: mean tumor weight, dose: 100.0 mg/kg/injection, schedule: Q01DX011 (ip), vehicle: other, higher = larger tumour): 64 % of control

Compound: O=[As]O
- T/C (endpoint: mean tumor weight, dose: 2.0 mg/kg/injection, schedule: Q01DX011 (ip), vehicle: saline, higher = larger tumour): 64 % of control
- T/C [4]: 110 % of control

Compound: CCCCCCCCCCCC(c1ccccc1)[N+](C)(C)Cc1ccccc1 (stereo unspecified)
- T/C [1]: 80 % of control
- T/C [2]: 70 % of control
- T/C [5]: 61 % of control
- T/C [3]: 87 % of control
- T/C [6]: 91 % of control
- T/C [7]: 120 % of control

Compound: C1OC1CN1CCN(CC2CO2)CC1 (stereo unspecified)
- T/C [5]: 83 % of control
- T/C (endpoint: mean tumor weight (est.), dose: 2.0 mg/kg/injection, schedule: Q01DX011 (ip), vehicle: saline, higher = larger tumour): 65 % of control
- T/C (endpoint: mean tumor weight (est.), dose: 4.0 mg/kg/injection, schedule: Q01DX011 (ip), vehicle: saline, higher = larger tumour): 74 % of control
- T/C (endpoint: mean tumor weight (est.), dose: 8.0 mg/kg/injection, schedule: Q01DX011 (ip), vehicle: saline, higher = larger tumour): 71 % of control
- T/C (endpoint: mean tumor weight (est.), dose: 16.0 mg/kg/injection, schedule: Q01DX011 (ip), vehicle: saline, higher = larger tumour): 63 % of control
- T/C [4]: 96 % of control
- T/C [8]: 105 % of control
- T/C [9]: 106 % of control

Compound: O=C1NC(c2cccc3ccccc23)Nc2ccccc21 (stereo unspecified)
- T/C (endpoint: mean tumor weight, dose: 15.6 mg/kg/injection, schedule: Q01DX011 (ip), vehicle: saline with Tween-80, higher = larger tumour): 86 % of control
- T/C (endpoint: mean tumor weight, dose: 31.2 mg/kg/injection, schedule: Q01DX011 (ip), vehicle: saline with Tween-80, higher = larger tumour): 80 % of control
- T/C (endpoint: mean tumor weight, dose: 62.5 mg/kg/injection, schedule: Q01DX011 (ip), vehicle: saline with Tween-80, higher = larger tumour): 90 % of control
- T/C (endpoint: mean tumor weight, dose: 125.0 mg/kg/injection, schedule: Q01DX011 (ip), vehicle: saline with Tween-80, higher = larger tumour): 67 % of control
- T/C (endpoint: median survival time, dose: 15.6 mg/kg/injection, schedule: Q01DX011 (ip), vehicle: saline, higher = longer survival): 102 % of control
- T/C (endpoint: median survival time, dose: 31.2 mg/kg/injection, schedule: Q01DX011 (ip), vehicle: saline, higher = longer survival): 119 % of control
- T/C (endpoint: median survival time, dose: 62.5 mg/kg/injection, schedule: Q01DX011 (ip), vehicle: saline, higher = longer survival): 114 % of control
- T/C (endpoint: median survival time, dose: 125.0 mg/kg/injection, schedule: Q01DX011 (ip), vehicle: saline, higher = longer survival): 114 % of control

Compound: CC(C)NCC(O)COc1cccc2ccccc12 (stereo unspecified)
- T/C (endpoint: median survival time, dose: 8.0 mg/kg/injection, schedule: Q01DX009 (ip), vehicle: Klucel (hydroxypropylcellulose) (HPC), higher = longer survival): 121 % of control
- T/C (endpoint: median survival time, dose: 16.0 mg/kg/injection, schedule: Q01DX009 (ip), vehicle: Klucel (hydroxypropylcellulose) (HPC), higher = longer survival): 121 % of control
- T/C (endpoint: median survival time, dose: 32.0 mg/kg/injection, schedule: Q01DX009 (ip), vehicle: Klucel (hydroxypropylcellulose) (HPC), higher = longer survival): 90 % of control
- T/C (endpoint: median survival time, dose: 64.0 mg/kg/injection, schedule: Q01DX009 (ip), vehicle: Klucel (hydroxypropylcellulose) (HPC), higher = longer survival): 110 % of control

Compound: [N-]=[N+]=CC(=O)CCC(N)C(=O)O (stereo unspecified)
- T/C (endpoint: mean tumor weight, dose: 7.5 micrograms/kg/injection, schedule: Q01DX011 (ip), vehicle: saline, higher = larger tumour): 107 % of control
- T/C (endpoint: mean tumor weight, dose: 15.0 micrograms/kg/injection, schedule: Q01DX011 (ip), vehicle: saline, higher = larger tumour): 77 % of control
- T/C (endpoint: mean tumor weight, dose: 30.0 micrograms/kg/injection, schedule: Q01DX011 (ip), vehicle: saline, higher = larger tumour): 75 % of control
- T/C (endpoint: mean tumor weight, dose: 60.0 micrograms/kg/injection, schedule: Q01DX011 (ip), vehicle: saline, higher = larger tumour): 102 % of control
- T/C (endpoint: median survival time, dose: 7.5 micrograms/kg/injection, schedule: Q01DX011 (ip), vehicle: saline, higher = longer survival): 114 % of control
- T/C (endpoint: median survival time, dose: 30.0 micrograms/kg/injection, schedule: Q01DX011 (ip), vehicle: saline, higher = longer survival): 90 % of control
- T/C (endpoint: median survival time, dose: 60.0 micrograms/kg/injection, schedule: Q01DX011 (ip), vehicle: saline, higher = longer survival): 90 % of control

Compound: CC(=O)NNC(=O)c1ccccn1
- T/C (endpoint: median survival time, dose: 8.0 mg/kg/injection, schedule: Q01DX Z (ip), vehicle: other, higher = longer survival): 86 % of control
- T/C (endpoint: median survival time, dose: 16.0 mg/kg/injection, schedule: Q01DX Z (ip), vehicle: other, higher = longer survival): 86 % of control
- T/C (endpoint: median survival time, dose: 32.0 mg/kg/injection, schedule: Q01DX Z (ip), vehicle: other, higher = longer survival): 86 % of control
- T/C (endpoint: median survival time, dose: 64.0 mg/kg/injection, schedule: Q01DX Z (ip), vehicle: other, higher = longer survival): 91 % of control

Compound: Cc1ccc2c(C)c3c(ccc4ccccc43)c[n+]2c1
- T/C (endpoint: mean tumor weight (est.), dose: 1.25 mg/kg/injection, schedule: Q01DX011 (ip), vehicle: saline, higher = larger tumour): 87 % of control
- T/C (endpoint: mean tumor weight (est.), dose: 2.5 mg/kg/injection, schedule: Q01DX011 (ip), vehicle: saline, higher = larger tumour): 96 % of control
- T/C (endpoint: mean tumor weight (est.), dose: 5.0 mg/kg/injection, schedule: Q01DX011 (ip), vehicle: saline, higher = larger tumour): 72 % of control
- T/C (endpoint: median survival time, dose: 1.25 mg/kg/injection, schedule: Q01DX011 (ip), vehicle: saline, higher = longer survival): 106 % of control
- T/C (endpoint: median survival time, dose: 2.5 mg/kg/injection, schedule: Q01DX011 (ip), vehicle: saline, higher = longer survival): 110 % of control
- T/C (endpoint: median survival time, dose: 5.0 mg/kg/injection, schedule: Q01DX011 (ip), vehicle: saline, higher = longer survival): 100 % of control

Compound: COC(=O)Nc1nc2ccc(C(=O)c3cccs3)cc2[nH]1
- T/C (endpoint: median survival time, dose: 35.0 mg/kg/injection, schedule: Q03DX008 (ip), vehicle: other, higher = longer survival): 101 % of control
- T/C (endpoint: median survival time, dose: 70.0 mg/kg/injection, schedule: Q03DX008 (ip), vehicle: other, higher = longer survival): 86 % of control

Compound: Nc1nc(=O)n(C2OC(CO)C(O)C2O)cc1F (stereo unspecified)
- T/C [8]: 98 % of control
- T/C (endpoint: median survival time, dose: 8.0 mg/kg/injection, schedule: Q01DX011 (ip), vehicle: saline, higher = longer survival): 117 % of control
- T/C [9]: 98 % of control
- T/C (endpoint: median survival time, dose: 32.0 mg/kg/injection, schedule: Q01DX011 (ip), vehicle: saline, higher = longer survival): 110 % of control

Compound: CNC(=S)N/N=C/C(C)=N/NC(=S)NC
- T/C (endpoint: median survival time, dose: 0.2 micrograms/kg/injection, schedule: Q01DX011 (ip), vehicle: saline with Tween-80, higher = longer survival): 100 % of control
- T/C (endpoint: median survival time, dose: 0.5 micrograms/kg/injection, schedule: Q01DX011 (ip), vehicle: saline with Tween-80, higher = longer survival): 102 % of control
- T/C (endpoint: median survival time, dose: 1.0 micrograms/kg/injection, schedule: Q01DX011 (ip), vehicle: saline with Tween-80, higher = longer survival): 102 % of control

Compound: Nc1nc(Cl)nc2c1ncn2C1OC(CO)C(O)C1O (stereo unspecified)
- T/C (endpoint: mean tumor weight (est.), dose: 25.0 mg/kg/injection, schedule: Q01DX011 (ip), vehicle: saline with Tween-80, higher = larger tumour): 72 % of control
- T/C (endpoint: mean tumor weight (est.), dose: 50.0 mg/kg/injection, schedule: Q01DX011 (ip), vehicle: saline with Tween-80, higher = larger tumour): 72 % of control
- T/C (endpoint: mean tumor weight (est.), dose: 100.0 mg/kg/injection, schedule: Q01DX011 (ip), vehicle: saline with Tween-80, higher = larger tumour): 36 % of control
- T/C (endpoint: median survival time, dose: 25.0 mg/kg/injection, schedule: Q01DX011 (ip), vehicle: saline with Tween-80, higher = longer survival): 102 % of control
- T/C (endpoint: median survival time, dose: 50.0 mg/kg/injection, schedule: Q01DX011 (ip), vehicle: saline with Tween-80, higher = longer survival): 93 % of control

Compound: COc1cc2c(c(OC)c1OC)-c1ccc(OC)c(=O)cc1[C@@H](NC=O)CC2
- T/C [1]: 90 % of control
- T/C [2]: 73 % of control
- T/C [5]: 49 % of control
- T/C [3]: 90 % of control
- T/C [6]: 116 % of control
- T/C [7]: 88 % of control
